{"source": "patent US7579331B2", "about": "“Method of improved diuresis in individuals with impaired renal function” (Novacardia, Inc., priority 2004, dated 2009)", "key": {"[1]": {"biological_target": "T1, adenosine A1 receptors (Homo sapiens, UniProt P30542)", "T1 sequence (P30542 1-326)": "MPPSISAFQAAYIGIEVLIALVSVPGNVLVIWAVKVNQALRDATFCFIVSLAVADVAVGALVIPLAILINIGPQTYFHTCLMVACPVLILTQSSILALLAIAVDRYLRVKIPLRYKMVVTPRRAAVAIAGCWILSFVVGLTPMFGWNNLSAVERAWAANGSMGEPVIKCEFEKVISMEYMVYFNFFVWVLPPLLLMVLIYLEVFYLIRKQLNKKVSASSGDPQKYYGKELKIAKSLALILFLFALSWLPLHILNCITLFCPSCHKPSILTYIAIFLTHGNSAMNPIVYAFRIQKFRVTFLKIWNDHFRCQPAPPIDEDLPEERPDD", "settings": "read-out: A1KI, cited from earlier work"}, "[2]": {"test_system": "urine volume", "settings": "equi-potent dose .3 mg/kg or 20 mg, Wolff et al 1998; cited from earlier work"}, "[3]": {"settings": "reported by Ticho et al 2003; cited from earlier work"}, "[4]": {"biological_target": "T1, adenosine A1 receptors", "settings": "BG 9719 relative to KW-3902"}}, "note": "Like-named read-outs stand apart in the source and are kept apart here.", "data": [{"smiles": "CCCn1c(=O)c2nc([C@H]3C[C@H]4C[C@@H]3[C@@H]3O[C@H]43)[nH]c2n(CCC)c1=O", "note": "[BG 9719]", "values": [{"measurement": "Ki", "setting": "[1]; adenosine A1 receptor", "result": "0.45 ± 0.04", "unit": "nM"}, {"measurement": "Ki", "setting": "[1]; repeated in the equi-potent dose table", "result": "0.45 ± 0.04", "unit": "nM"}, {"measurement": "% Urine volume increase over placebo, 3 hr", "setting": "[2]", "result": 33, "unit": "%"}, {"measurement": "solubility", "setting": "[3]", "result": "poor"}, {"measurement": "stability", "setting": "[3]", "result": "poor"}, {"measurement": "greater affinity for the A1 receptor than KW-3902", "setting": "[4]", "result": 60, "unit": "%"}]}]}
